Assay results from patent US11834414B2, “1-methyl-4-[(4-phenylphenyl)sulfonylmethyl]cyclohexyanol and 1-methyl-4-[[4-(2-pyridyl)phenyl]sulfonylmethyl]cyclohexanol compounds and their therapeutic use” (Modern Biosciences Limited, priority 2018, dated 2023).
“Also recorded” adds a separate entry of the source.

Assays:
human hepatocytes = experiment: Human hepatocyte stability; type: in vitro ADME; details: hepatocyte stability, compared to the reference compounds
Outline: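 Compounds (1 μM final, 0.1% DMSO, 0.9% acetonitrile) were incubated in duplicate with pooled rat or human hepatocytes at 37° C, sampled at 0–60 min and quenched with methanol. Remaining parent was measured by LC-MS/MS. Elimination rate constant came from the ln(concentration)–time slope, giving t1/2 and CLint scaled to hepatocyte concentration.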

[1] = Metabolite identification in rats; type: in vivo, Han Wistar rats; details: rat, 1 mg/kg intravenous, up to 24 hours
Experimental: The formation of metabolites in rats was assessed to determine the propensity of the compounds to form a biaryl metabolite.
The corresponding sulfonamide compounds (for example, reference compound HMC-C-01-A) give rise to a sulphonamide metabolite which is persistent and has a long half-life. In addition, the biaryl sulphonamide metabolite acts as an inducer of metabolism in rats, which may complicate the assessment of toxicity in rodents. Therefore, the lower the propensity to form a biaryl sulphonamide metabolite, the greater the potential suitability of the compound for development for human use.
Plasma samples from Han Wistar rats, aged 8-12 weeks, were collected from animals dosed with test compound. Test compounds at a dose of 1 mg/kg were administered intravenously as a solution in 5% NMP, 5% Solutol HS, and 90% normal saline. Animals were given free access to food throughout the study. Blood samples were taken under light isoflurane anaesthesia at 12 time points following an intravenous dose (0.033, 0.1, 0.167, 0.25, 0.5, 1, 2, 4, 6, 8, 12, and 24 hours). The blood samples were collected from a set of three rats at each time point in labelled micro centrifuge tube containing K2EDTA as anticoagulant. Plasma samples were separated by centrifugation of whole blood.
All samples were processed for analysis by protein precipitation using acetonitrile and analysed with a fit-for-purpose LC-MS/MS method.
At the completion of the study, the results were expressed as detection of the metabolite and time course of formation.

Row | Compound | metabolic stability (in words) (human hepatocytes) | formation of biaryl sulphonamide metabolite (MET-001) in plasma [1]
1 | C[C@]1(O)CC[C@@H](CS(=O)(=O)c2ccc(-c3ncc(F)cc3F)c(F)c2)CC1 [CHMSA-03-A, cis-4-(((4-(3,5-difluoropyridin-2-yl)-3-fluorophenyl)sulfonyl)methyl)-1-methylcyclohexan-1-ol] | exceptionally good stability | –
2 | C[C@]1(O)CC[C@@H](CS(=O)(=O)c2ccc(-c3ccc(C#N)cc3F)cc2C(F)(F)F)CC1 [CHMSA-02-A, 2-fluoro-4′-(((cis-4-hydroxy-4-methylcyclohexyl)methyl)sulfonyl)-3′-(trifluoromethyl)-[1,1′-biphenyl]-4-carbonitrile] | exceptionally good stability | –
3 | C[C@]1(O)CC[C@H](NS(=O)(=O)c2ccc(-c3ccc(Cl)cc3C#N)cc2)CC1 [HMC-C-01-A, reference compound] | – | formed in large quantities and accumulated over time; also recorded: in large quantities (which accumulated over time)
